In patent US20250304559A1, “Ether-Linked Antiviral Compounds” (Pfizer Inc., priority 2021, published 2025):

Key:
[1] = biological target: T1, SARS-CoV-2 3CL protease (Severe acute respiratory syndrome coronavirus 2, UniProt P0DTD1); assay: SARS-CoV-2 Coronavirus 3C Protease FRET Assay; format: biochemical; conditions: Examples 14-78 and 114 (second head of Table 2); Morrison equation fit, 15 nM enzyme, 25 μM peptide substrate; read-out: Geometric Mean Ki (nM) IC50
T1 construct: measures the activity of full-length SARS-CoV-2 3CL protease

[2] = system: SARS-CoV-2 (USA_WA1/2020); assay: Antiviral Activity from SARS-CoV-2 Infection (cytopathic effect, Cell Titer-Glo); format: cell-based; conditions: Severe acute respiratory syndrome coronavirus 2, Vero C1008, 72 h, VeroE6 cells enriched for hACE2, MOI 0.002, 3-day incubation; tested alone or with P-gp inhibitor CP-100356 2 μM (table does not say which); read-out: Geometric Mean EC50

| Structure (SMILES) | Ki [1] [nM] | EC50 [2] [nM] |
| --- | --- | --- |
| CC(C)c1cccc(OCC(=O)[C@H](C[C@@H]2CCNC2=O)NC(=O)[C@@H]2[C@@H]3[C@H](CN2C(=O)[C@@H](NC(=O)C(F)(F)F)C(C)C)C3(C)C)c1 [Example 56, (1R,2S,5S)-6,6-dimethyl-N-{(2S)-3-oxo-1-[(3S)-2-oxopyrrolidin-3-yl]-4-[3-(propan-2-yl)phenoxy]butan-2-yl}-3-[N-(trifluoroacetyl)-L-valyl]-3-azabicyclo[3.1.0]hexane-2-carboxamide] | 14.4 | 119 |
| CC(C)[C@H](NC(=O)C(F)(F)F)C(=O)N1C[C@H]2[C@@H]([C@H]1C(=O)N[C@@H](C[C@@H]1CCNC1=O)C(=O)COc1cc(F)cc(F)c1)C2(C)C [Example 58, (1R,2S,5S)-N-{(2S)-4-(3,5-difluorophenoxy)-3-oxo-1-[(3S)-2-oxopyrrolidin-3-yl]butan-2-yl}-6,6-dimethyl-3-[N-(trifluoroacetyl)-L-valyl]-3-azabicyclo[3.1.0]hexane-2-carboxamide] | 17.1 | 88.7 |
| Cc1cc(OCC(=O)[C@H](C[C@@H]2CCNC2=O)NC(=O)[C@@H]2[C@@H]3[C@H](CN2C(=O)[C@@H](NC(=O)C(F)(F)F)C(C)C)C3(C)C)no1 [Example 61, (1R,2S,5S)-6,6-dimethyl-N-{(2S)-4-[(5-methyl-1,2-oxazol-3-yl)oxy]-3-oxo-1-[(3S)-2-oxopyrrolidin-3-yl]butan-2-yl}-3-[N-(trifluoroacetyl)-L-valyl]-3-azabicyclo[3.1.0]hexane-2-carboxamide] | 31.7 | 1800 |
| CC(C)[C@H](NC(=O)C(F)(F)F)C(=O)N1C[C@H]2[C@@H]([C@H]1C(=O)N[C@@H](C[C@@H]1CCNC1=O)C(=O)COc1cnsn1)C2(C)C [Example 62, (1R,2S,5S)-6,6-dimethyl-N-{(2S)-3-oxo-1-[(3S)-2-oxopyrrolidin-3-yl]-4-[(1,2,5-thiadiazol-3-yl)oxy]butan-2-yl}-3-[N-(trifluoroacetyl)-L-valyl]-3-azabicyclo[3.1.0]hexane-2-carboxamide] | 55.7 | 1870 |
| CC(C)[C@H](NC(=O)C(F)(F)F)C(=O)N1C[C@H]2[C@@H]([C@H]1C(=O)N[C@@H](C[C@@H]1CCNC1=O)C(=O)COc1ncnn1-c1ccccc1)C2(C)C [Example 64, (1R,2S,5S)-6,6-dimethyl-N-{(2S)-3-oxo-1-[(3S)-2-oxopyrrolidin-3-yl]-4-[(1-phenyl-1H-1,2,4-triazol-5-yl)oxy]butan-2-yl}-3-[N-(trifluoroacetyl)-L-valyl]-3-azabicyclo[3.1.0]hexane-2-carboxamide] | 62.2 | 5360 |
| CCc1c(OCC(=O)[C@H](C[C@@H]2CCNC2=O)NC(=O)[C@@H]2[C@@H]3[C@H](CN2C(=O)[C@@H](NC(=O)C(F)(F)F)C(C)C)C3(C)C)noc1C [Example 67, (1R,2S,5S)-N-{(2S)-4-[(4-ethyl-5-methyl-1,2-oxazol-3-yl)oxy]-3-oxo-1-[(3S)-2-oxopyrrolidin-3-yl]butan-2-yl}-6,6-dimethyl-3-[N-(trifluoroacetyl)-L-valyl]-3-azabicyclo[3.1.0]hexane-2-carboxamide] | 107 | 1750 |
| CC(C)(C)[C@H](NS(=O)(=O)C(F)(F)F)C(=O)N1C[C@H]2[C@@H]([C@H]1C(=O)N[C@H](C[C@@H]1CCNC1=O)C(=O)COc1ccc(F)cc1F)C2(C)C [Example 68, (1R,2S,5S)-N-{(2R)-4-(2,4-difluorophenoxy)-3-oxo-1-[(3S)-2-oxopyrrolidin-3-yl]butan-2-yl}-6,6-dimethyl-3-[3-methyl-N-(trifluoromethanesulfonyl)-L-valyl]-3-azabicyclo[3.1.0]hexane-2-carboxamide] | 129 | 97 |
| CC[C@@H]([C@H](NS(=O)(=O)C(F)(F)F)C(=O)N1C[C@H]2[C@@H]([C@H]1C(=O)N[C@@H](C[C@@H]1CCNC1=O)C(=O)COc1ccc(F)cc1F)C2(C)C)C(F)(F)F [Example 70, (1R,2S,5S)-N-{(2S)-4-(2,4-difluorophenoxy)-3-oxo-1-[(3S)-2-oxopyrrolidin-3-yl]butan-2-yl}-6,6-dimethyl-3-[3′,3′,3′-trifluoro-N-(trifluoromethanesulfonyl)-L-isoleucyl]-3-azabicyclo[3.1.0]hexane-2-carboxamide] | 203 | 5440 |
| Cc1ccc2nc(OCC(=O)[C@H](C[C@@H]3CCNC3=O)NC(=O)[C@@H]3[C@@H]4[C@H](CN3C(=O)[C@@H](NC(=O)C(F)(F)F)C(C)C)C4(C)C)oc2c1 [Example 72, (1R,2S,5S)-6,6-dimethyl-N-{(2S)-4-[(6-methyl-1,3-benzoxazol-2-yl)oxy]-3-oxo-1-[(3S)-2-oxopyrrolidin-3-yl]butan-2-yl}-3-[N-(trifluoroacetyl)-L-valyl]-3-azabicyclo[3.1.0]hexane-2-carboxamide] | 505 | 19000 |
| CC(C)[C@H](NC(=O)C(F)(F)F)C(=O)N1C[C@H]2[C@@H]([C@H]1C(=O)N[C@@H](C[C@@H]1CCNC1=O)C(=O)COc1nnc(C(F)(F)F)n1C)C2(C)C [Example 74, (1R,2S,5S)-6,6-dimethyl-N-{(2S)-4-{[4-methyl-5-(trifluoromethyl)-4H-1,2,4-triazol-3-yl]oxy}-3-oxo-1-[(3S)-2-oxopyrrolidin-3-yl]butan-2-yl}-3-[N-(trifluoroacetyl)-L-valyl]-3-azabicyclo[3.1.0]hexane-2-carboxamide] | 919 | 25700 |
| CC(C)[C@H](NC(=O)C(F)(F)F)C(=O)N1C[C@H]2[C@@H]([C@H]1C(=O)N[C@@H](C[C@@H]1CCNC1=O)C(=O)COc1nnc3c(F)cccn13)C2(C)C [Example 75, (1R,2S,5S)-N-{(2S)-4-[(8-fluoro[1,2,4]triazolo[4,3-a]pyridin-3-yl)oxy]-3-oxo-1-[(3S)-2-oxopyrrolidin-3-yl]butan-2-yl}-6,6-dimethyl-3-[N-(trifluoroacetyl)-L-valyl]-3-azabicyclo[3.1.0]hexane-2-carboxamide] | 2900 | > 76800 |
| Cc1noc(OCC(=O)[C@H](C[C@@H]2CCNC2=O)NC(=O)[C@@H]2[C@@H]3[C@H](CN2C(=O)[C@@H](NC(=O)C(F)(F)F)C(C)C)C3(C)C)n1 [Example 76, (1R,2S,5S)-6,6-dimethyl-N-{(2S)-4-[(3-methyl-1,2,4-oxadiazol-5-yl)oxy]-3-oxo-1-[(3S)-2-oxopyrrolidin-3-yl]butan-2-yl}-3-[N-(trifluoroacetyl)-L-valyl]-3-azabicyclo[3.1.0]hexane-2-carboxamide] | 3840 | > 100000 |
